Test [1] has as its system IL-4 stimulated expression of CD23 in human Ramos B cells (JAK-1 and JAK-3). The test can be described thus: Assay for Ramos B-Cell Line Stimulated with IL-4 (CD23 upregulation, FACS). Format: cell-based. The following applies: read-out: IC50, Example 41. In a few lines:
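Read-out: anti-CD23-PE flow cytometry on Ramos B cells, giving IC50. Cells (5×10^4 per point, RPMI + 5% serum) get compound or DMSO for 1 h at 37 °C, then IL-4 50 units/mL final for 20-24 h.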

The test system of test [2] is up-regulation of ICAM-1 (CD54) by IFNγ in U937 human monocytic cells. The test can be described thus: U937 IFNγ ICAM1 FACS Assay. Format: cell-based. To be noted: Homo sapiens, U-937, U937 cells stimulated with IFNγ, ICAM-1 expression by FACS; read-out: IC50, Example 44. The gist of the method: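 U937 cells in 10% FCS RPMI were preincubated 30 min at 37 °C with an 8-point, 3-fold compound dilution series in duplicate, then stimulated with IFNγ for 18–24 h. Surface ICAM-1 was stained with APC anti-ICAM-1 and read by flow cytometry as geometric mean on live-gated cells. EC50 was derived.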
Background: A flow cytometer gives signals particle by particle.

Setting [3] is: Ramos B cells stimulated with IL-4, CD23 expression by FACS.
Where [4] appears, read: Homo sapiens, Ramos, Ramos B-cell line stimulated with IL-4, CD23 expression by FACS.

Read-outs that look alike come from different tables or passages of the source.

One may read the IC50 as the concentration that gives 50% inhibition.

`COc1ccc(CN2C(=O)C(C)Oc3ccc(Nc4nc(Nc5ccc(S(N)(=O)=O)cc5)ncc4F)cc32)cc1` (racemic) [Compound V-4, Racemic N2-(4-Aminosulphonylphenyl)-5-fluoro-N4-[2-methyl-3-oxo-4-(4-methoxybenzyl)-benz[1,4]oxazin-6-yl]-2,4-pyrimidinediamine]: in test [1] (setting [3]), the concentration for half-maximal inhibition (IC50) turned out to be 108 nM.

Take `COc1cc(Nc2nc(Nc3ccc(S(N)(=O)=O)cc3)ncc2F)cc(OCC#N)c1OC` [Compound I-1, N2-(4-Aminosulphonylphenyl)-N4-(3-cyanomethoxy-4,5-dimethoxyphenyl)-5-fluoro-2,4-pyrimidinediamine]: the IC50 in test [1] (setting [4]) is 366 nM; in test [2] it was 35300 nM.

With `N#CCOc1ccc(Nc2nc(Nc3ccc(S(N)(=O)=O)cc3)ncc2F)cc1F` [Compound I-44, N2-(4-Aminosulfonylphenyl)-N4-(4-cyanomethoxy-3-fluorophenyl)-5-fluoro-2,4-pyrimidinediamine], the IC50 stood at 53.2 nM in test [1] (setting [4]) and 5070 nM in test [2].

In the case of `COc1cc(Nc2nc(Nc3ccc(S(N)(=O)=O)cc3)ncc2F)ccc1OCC#N` [Compound I-45, N2-(4-Aminosulfonylphenyl)-N4-(4-cyanomethoxy-3-methoxyphenyl)-5-fluoro-2,4-pyrimidinediamine], the IC50 in test [1] (setting [4]) was 104 nM; in test [2], 3640 nM.

For `COc1cc(Nc2nc(Nc3cccc(S(N)(=O)=O)c3)ncc2F)ccc1OCC#N` [Compound I-46, N2-(3-Aminosulfonylphenyl)-N4-(4-cyanomethoxy-3-methoxyphenyl)-5-fluoro-2,4-pyrimidinediamine], the half-inhibitory concentration (IC50) in test [1] (setting [4]) came to 113 nM; in test [2], 751 nM.

With `COc1cc(Nc2nc(Nc3ccc(C)c(S(N)(=O)=O)c3)ncc2F)ccc1OCC#N` [Compound I-47, N2-(3-Aminosulfonyl-4-methylphenyl)-N4-(4-cyanomethoxy-3-methoxyphenyl)-5-fluoro-2,4-pyrimidinediamine], the IC50 in test [1] (setting [4]) turned out to be 120 nM; in test [2], 759 nM.

As for `Cc1ccc(Nc2ncc(F)c(Nc3ccc(OCC#N)c(CO)c3)n2)cc1S(N)(=O)=O` [Compound I-51, N2-(3-Aminosulfonyl-4-methylphenyl)-N4-(4-cyanomethoxy-3-hydroxymethylphenyl)-5-fluoro-2,4-pyrimidinediamine], the IC50 in test [1] (setting [4]) turned out to be 263 nM; in test [2], 32200 nM.

Consider `N#CCOc1ccc(Nc2nc(Nc3ccc(S(N)(=O)=O)cc3)ncc2F)cc1-c1ccn(CC#N)n1` [Compound I-52, N2-(4-Aminosulfonylphenyl)-N4-[4-cyanomethoxy-3-(1-cyanomethylpyrazol-3-yl)phenyl]-5-fluoro-2,4-pyrimidinediamine], for which the IC50 stood at 152 nM in test [1] (setting [4]) and 68700 nM in test [2].

Consider `COc1ccc(Nc2ncc(F)c(Nc3ccc(OCC#N)cc3)n2)cc1S(N)(=O)=O` [Compound I-56, N2-(3-Aminosulfonyl-4-methoxyphenyl)-N4-(4-cyanomethoxyphenyl)-5-fluoro-2,4-pyrimidinediamine], for which the 50% inhibitory concentration (IC50) in test [1] (setting [4]) worked out at 104 nM; in test [2], 424 nM.

As to `Cc1cnc(Nc2cccc(S(N)(=O)=O)c2)nc1Nc1ccc(OCC#N)cc1` [Compound I-58, N2-(3-Aminosulfonylphenyl)-N4-(4-cyanomethoxyphenyl)-5-methyl-2,4-pyrimidinediamine], the IC50 in test [1] (setting [4]) was 5.05 nM; in test [2] it was 66 nM.

Consider `Cc1ccc(Nc2ncc(C)c(Nc3ccc(OCC#N)cc3)n2)cc1S(N)(=O)=O` [Compound I-59, N2-(3-Aminosulfonyl-4-methylphenyl)-N4-(4-cyanomethoxyphenyl)-5-methyl-2,4-pyrimidinediamine], for which the results for the IC50 in test [1] (setting [4]) and in test [2] were 6.55 nM and 57.7 nM, respectively.

Consider `NC(=O)COc1ccc(Nc2nc(Nc3ccc(S(N)(=O)=O)cc3)ncc2F)cc1Cl` [Compound I-97, N4-(4-Aminocarbonylmethoxy-3-chlorophenyl)-N2-(4-aminosulfonylphenyl)-5-fluoro-2,4-pyrimidinediamine], for which the IC50 was 212 nM in test [1] (setting [4]) and 27400 nM in test [2].

As to `NC(=O)COc1ccc(Nc2nc(Nc3cccc(S(N)(=O)=O)c3)ncc2F)cc1Cl` [Compound I-98, N4-(4-Aminocarbonylmethoxy-3-chlorophenyl)-N2-(3-aminosulfonylphenyl)-5-fluoro-2,4-pyrimidinediamine], the 50% inhibitory concentration (IC50) in test [1] (setting [4]) came out at 295 nM; in test [2] it was 11000 nM.

For `Cc1ccc(Nc2ncc(F)c(Nc3ccc(OCC(N)=O)c(Cl)c3)n2)cc1S(N)(=O)=O` [Compound I-99, N4-(4-Aminocarbonylmethoxy-3-chlorophenyl)-N2-(3-aminosulfonyl-4-methylphenyl)-5-fluoro-2,4-pyrimidinediamine], the figures for the concentration for half-maximal inhibition (IC50) in test [1] (setting [4]) and in test [2] were 68.6 nM and 3780 nM, respectively.

For `NC(=O)COc1ccc(Nc2nc(Nc3cccc(S(N)(=O)=O)c3)ncc2F)cc1F` [Compound I-101, N4-(4-Aminocarbonylmethoxy-3-fluorophenyl)-N2-(3-aminosulfonylphenyl)-5-fluoro-2,4-pyrimidinediamine], the half-maximal inhibitory concentration (IC50) is 328 nM in test [1] (setting [4]) and 36600 nM in test [2].

Consider `Cc1ccc(Nc2ncc(F)c(Nc3ccc(OCC(N)=O)c(F)c3)n2)cc1S(N)(=O)=O` [Compound I-102, N4-(4-Aminocarbonylmethoxy-3-fluorophenyl)-N2-(3-aminosulfonyl-4-methylphenyl)-5-fluoro-2,4-pyrimidinediamine], for which the IC50 came to 219 nM in test [1] (setting [4]) and 15600 nM in test [2].

As for `Cc1cnc(Nc2ccc(S(N)(=O)=O)cc2)nc1Nc1ccc(OCC(N)=O)cc1` [Compound I-108, N4-(4-Aminocarbonylmethoxyphenyl)-N2-(4-aminosulfonylphenyl)-5-methyl-2,4-pyrimidinediamine], the IC50 in test [1] (setting [4]) stood at 145 nM; in test [2], 3970 nM.

Consider `Cc1cnc(Nc2cccc(S(N)(=O)=O)c2)nc1Nc1ccc(OCC(N)=O)cc1` [Compound I-109, N4-(4-Aminocarbonylmethoxyphenyl)-N2-(3-aminosulfonylphenyl)-5-methyl-2,4-pyrimidinediamine], for which the IC50 in test [1] (setting [4]) came to 305 nM; in test [2] it was 9940 nM.

In the case of `Cc1ccc(Nc2ncc(C)c(Nc3ccc(OCC(N)=O)cc3)n2)cc1S(N)(=O)=O` [Compound I-110, N4-(4-Aminocarbonylmethoxyphenyl)-N2-(3-aminosulfonyl-4-methylphenyl)-5-methyl-2,4-pyrimidinediamine], the IC50 was determined as 358 nM in test [1] (setting [4]) and 3930 nM in test [2].

Take `CN(C)C(=O)COc1ccc(Nc2nc(Nc3ccc(S(N)(=O)=O)cc3)ncc2F)cc1Cl` [Compound I-131, N2-(4-Aminosulfonylphenyl)-N4-(3-chloro-4-dimethylaminocarbonylmethoxyphenyl)-5-fluoro-2,4-pyrimidinediamine]: the IC50 in test [1] (setting [4]) turned out to be 262 nM; in test [2] it was 2990 nM.

For the compound `CN(C)C(=O)COc1ccc(Nc2nc(Nc3cccc(S(N)(=O)=O)c3)ncc2F)cc1Cl` [Compound I-132, N2-(3-Aminosulfonylphenyl)-N4-(3-chloro-4-dimethylaminocarbonylmethoxyphenyl)-5-fluoro-2,4-pyrimidinediamine], the figures for the IC50 in test [1] (setting [4]) and in test [2] were 351 nM and 2720 nM, respectively.

For `Cc1cnc(Nc2ccc(S(N)(=O)=O)cc2)nc1Nc1ccc(OCC(=O)N(C)C)c(Cl)c1` [Compound I-134, N2-(4-Aminosulfonylphenyl)-N4-(3-chloro-4-dimethylaminocarbonylmethoxyphenyl)-5-methyl-2,4-pyrimidinediamine], the IC50 in test [1] (setting [4]) was 178 nM; in test [2], 3240 nM.

As for `Cc1cnc(Nc2cccc(S(N)(=O)=O)c2)nc1Nc1ccc(OCC(=O)N(C)C)c(Cl)c1` [Compound I-135, N2-(3-Aminosulfonylphenyl)-N4-(3-chloro-4-dimethylaminocarbonylmethoxyphenyl)-5-methyl-2,4-pyrimidinediamine], the IC50 is 112 nM in test [1] (setting [4]) and 1830 nM in test [2].

With `Cc1ccc(Nc2ncc(C)c(Nc3ccc(OCC(=O)N(C)C)c(Cl)c3)n2)cc1S(N)(=O)=O` [Compound I-136, N2-(3-Aminosulfonyl-4-methylphenyl)-N4-(3-chloro-4-dimethylaminocarbonylmethoxyphenyl)-5-methyl-2,4-pyrimidinediamine], the concentration for half-maximal inhibition (IC50) in test [1] (setting [4]) turned out to be 132 nM; in test [2] it was 1640 nM.

As to `Cc1cnc(Nc2ccc(Cl)c(S(N)(=O)=O)c2)nc1Nc1ccc(OCC(=O)N(C)C)c(Cl)c1` [Compound I-141, N2-(3-Aminosulfonyl-4-chlorophenyl)-N4-(3-chloro-4-dimethylaminocarbonylmethoxyphenyl)-5-methyl-2,4-pyrimidinediamine], in test [1] (setting [4]), the 50% inhibitory concentration (IC50) is 162 nM.

Regarding `NS(=O)(=O)c1ccc(Nc2ncc(F)c(Nc3ccc(OCCN4CCOCC4)cc3)n2)cc1` [Compound I-205, N2-(4-Aminosulfonylphenyl)-5-fluoro-N4-[4-(2-morpholinoethyloxy)phenyl)-2,4-pyrimidinediamine], the IC50 in test [1] (setting [4]) is 315 nM.

For `COC(=O)c1ccc(Nc2nc(Nc3ccc(F)c(S(N)(=O)=O)c3)ncc2F)s1` [IX-48, N2-(3-Aminosulfonyl-4-fluorophenyl)-5-fluoro-N4-(5-methoxycarbonyl-thiophene-2-yl)-2,4-pyrimidinediamine], in test [1] (Homo sapiens, Ramos, Ramos B cells stimulated with IL-4, CD23 expression by FACS), the half-maximal inhibitory concentration (IC50) is 258 nM.

For the compound “N4-(3,4-Dichlorophenyl)-5-fluoro-N2-[3-(4-methylpipendin-1-yl)aminosulfonylphenyl]-2,4-pyrimidinediamine [VI-10]”, in test [1] (setting [3]), the IC50 was 220 nM.
